Test results reported in BindingDB's records for doi:10.7270/Q2BV7F7H (Burnham Center For Chemical Genomics, 2012).
Where “and” joins values, the source holds several entries; their conditions need not be identical. Equal values may be shown once.

The molecules below were run against Probable nicotinate-nucleotide adenylyltransferase (Staphylococcus aureus (strain N315), UniProt P65502).
Probable nicotinate-nucleotide adenylyltransferase, sequence (P65502 whole entry): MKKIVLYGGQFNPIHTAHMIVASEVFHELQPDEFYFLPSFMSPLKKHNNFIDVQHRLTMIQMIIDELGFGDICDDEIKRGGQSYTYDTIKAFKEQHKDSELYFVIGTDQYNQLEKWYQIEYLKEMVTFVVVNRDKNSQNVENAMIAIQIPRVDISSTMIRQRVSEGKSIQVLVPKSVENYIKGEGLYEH

Row | SMILES | IC50
1 | C#CCN(C[C@@H]1c2c(c(O)n(-c3ccccc3)c2O)C[C@@H](OC(=O)Nc2cccs2)[C@H]1OC(=O)Nc1cccs1)S(=O)(=O)c1ccc(C)cc1 [[(3aR,5R,6S,7S,7aS)-7-[[(4-methylphenyl)sulfonyl-prop-2-ynyl-amino]methyl]-1,3-bis(oxidanylidene)-2-phenyl-6-(thiophen-2-ylcarbamoyloxy)-3a,4,5,6,7,7a-hexahydroisoindol-5-yl] N-thiophen-2-ylcarbamate] | 34.5 µM
2 | Cc1ccc(Nc2nnc(SCC(=O)C(C#N)c3nc4ccccc4[nH]3)s2)c(C)c1 (centres undefined) [2-(1,3-dihydrobenzimidazol-2-ylidene)-4-[[5-(2,4-dimethylanilino)-1,3,4-thiadiazol-2-yl]thio]-3-oxobutanenitrile] | 26.7 µM and 21.4 µM
3 | CCOc1ccc(CN=Nc2ccc(S(=O)(=O)Nc3ccccc3C(=O)O)cc2[N+](=O)[O-])cc1 | 15.6 µM
4 | Cc1ccc(-n2c(O)cc(N(CCc3ccccc3)C(=S)Nc3ccc(N(C)C)cc3)c2O)cc1 [SMR000159829] | 77.7 µM
5 | N#CC1C(=S)N=C(N)C(c2nc(-c3ccccc3)cs2)C12CCCC2 (centres undefined) [7-amino-9-mercapto-6-(4-phenyl-2-thiazolyl)-8-azaspiro[4.5]deca-7,9-diene-10-carbonitrile] | 19.1 µM
6 | O=C1C(=O)N(c2nc3ccc(Cl)cc3s2)C(c2ccco2)C1C(=O)c1ccco1 (centres undefined) | 56.8 µM
7 | Cc1ccc(-n2[nH]c(C)c(C(c3cccc(O)c3)c3c(C)[nH]n(-c4ccc(C)c(C)c4)c3=O)c2=O)cc1C [2-(3,4-dimethylphenyl)-4-[[1-(3,4-dimethylphenyl)-5-hydroxy-3-methyl-1H-pyrazol-4-yl](3-hydroxyphenyl)methyl]-5-methyl-2,4-dihydro-3H-pyrazol-3-one] | 15.1 µM
8 | Cc1[nH]n(-c2ccc(Cl)cc2)c(=O)c1C(c1ccccc1O)c1c(C)[nH]n(-c2ccc(Cl)cc2)c1=O [SMR000171531] | 21.1 µM
9 | Cc1cccc(C)c1Nc1nnc(SCC(=O)C(C#N)c2nc3ccccc3[nH]2)s1 (centres undefined) [MLS000392242] | 25.2 µM
10 | CCOC(=O)c1ccccc1-n1c(O)c2c(c1O)C(C=Cc1ccccc1)c1sc(=O)[nH]c1S2 (centres undefined) [ethyl 2-[2,5,7-trioxo-8-[(E)-2-phenylethenyl]-3,4a,7a,8-tetrahydropyrrolo[2,3]thiopyrano[4,5-b][1,3]thiazol-6-yl]benzoate] | 45.9 µM
11 | N#CC1C(=S)N=C(N)C(c2nc(-c3ccccc3)cs2)C12CCCCC2 (centres undefined) [2-amino-4-mercapto-1-(4-phenyl-2-thiazolyl)-3-azaspiro[5.5]undeca-2,4-diene-5-carbonitrile] | 23.2 µM
12 | CC(=NNC(=O)c1cccc(N=NC(C)c2ccco2)c1)c1ccco1 (centres undefined) [N-[1-(2-furanyl)ethylideneamino]-3-[2-[1-(2-furanyl)ethylidene]hydrazinyl]benzamide] | 14.8 µM
13 | CCc1nnc(NS(=O)(=O)c2ccc(N=CCC(=O)c3ccc4ccccc4c3)cc2)s1 [N-(5-Ethyl-[1,3,4]thiadiazol-2-yl)-4-(3-naphthalen-2-yl-3-oxo-propenylamino)-benzenesulfonamide] | 29.7 µM
14 | O=C(O)Cc1sc(N=NCc2ccccc2)nc1-c1ccccc1 | 27.7 µM
15 | C1=NC2CCCC2C(N2CCCC2)=C1 (centres undefined) | 50 µM
16 | Cc1cc(N2C(=O)C(=O)C(C(=O)c3ccc(C)o3)C2c2ccc(OCc3ccccc3)cc2)no1 (centres undefined) [3-(5-methylfuran-2-yl)carbonyl-1-(5-methyl-1,2-oxazol-3-yl)-4-oxidanyl-2-(4-phenylmethoxyphenyl)-2H-pyrrol-5-one] | 28.9 µM
17 | Cc1ccccc1COc1ccc(C(=O)C2C(=O)C(=O)N(CCCn3ccnc3)C2c2ccco2)cc1 (centres undefined) | 80 µM
18 | Nc1ccccc1C(=O)NNC(=O)C(=O)CC(=O)c1ccccc1 [SMR000427706] | 12 µM
19 | COc1cccc(OCc2cc(CN=Nc3ccc(C(=O)O)cc3)ccc2OC)c1 [SMR000415960] | 25.5 µM
